Tests used:
[1] = Lipophilicity, log D of the compound at pH 6.5 by HPLC analysis; assay type: physicochemical; conditions: buffer
Mus musculus = experiment: In vivo inverse agonist activity at RORgamma in wild type BALB/c ByJ Rj mouse model of imiquimod-induced skin inflammation model assessed as attenuation of imiquimod-induced epidermal hyperplasia at 0.01% administered topically daily for 7 days dosed 2 hrs before imiquimod administration measured on day 8 by hematoxylin and eosin staining-based histological analysis; assay type: functional
[2] = Phototoxicity against human neonatal keratinocytes assessed as cell viability preincubated for 30 mins before 5 J/cm2 UV light irradiation for 15 mins followed by treatment medium replacement with fresh culture medium after 24 hrs by neutral red dye-based assay; conditions: 0.25 h
[3] = biological target: T1, Nuclear receptor ROR-alpha (Homo sapiens, UniProt P35398); experiment: Inverse agonist activity at RORalpha (unknown origin) expressed in human HeLa-derived HG5LN cells transfected with the GAL4 DNA-binding domain fused to the RORalpha ligand-binding domain assessed as inhibition of transcriptional activity after 18 hrs by luminescence-based luciferase reporter gene assay; assay type: cell-based
T1 sequence (P35398 whole entry): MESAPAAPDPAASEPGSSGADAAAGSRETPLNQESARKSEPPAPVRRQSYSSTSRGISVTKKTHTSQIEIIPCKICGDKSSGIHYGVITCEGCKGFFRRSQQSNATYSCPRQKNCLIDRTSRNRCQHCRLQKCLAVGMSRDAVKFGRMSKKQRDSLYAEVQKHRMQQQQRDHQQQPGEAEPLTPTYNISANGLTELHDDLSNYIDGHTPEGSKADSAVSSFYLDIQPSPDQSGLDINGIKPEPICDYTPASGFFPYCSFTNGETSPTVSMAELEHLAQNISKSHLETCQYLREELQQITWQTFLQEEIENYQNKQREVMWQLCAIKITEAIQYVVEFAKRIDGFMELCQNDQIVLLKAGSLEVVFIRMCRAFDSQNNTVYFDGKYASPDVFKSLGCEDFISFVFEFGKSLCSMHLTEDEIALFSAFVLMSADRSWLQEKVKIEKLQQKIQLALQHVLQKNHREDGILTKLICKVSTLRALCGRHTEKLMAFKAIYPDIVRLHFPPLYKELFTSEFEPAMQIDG

TK6 [4] = experiment: Genotoxicity in human-derived p53-competent TK6 cells expressing GADD45a-dependent green fluorescent protein assessed as decrease in cell viability after 48 hrs in absence of Sprague-Dawley rat S9 fraction by FACS analysis; assay type: toxicity, cell-based; conditions: tk6, 48 h
TK6 [5] = experiment: Genotoxicity in human TK6 cells incubated for 3 hrs in absence of aroclor-1254-induced rat S9 fraction followed by 27 hrs recovery period by Giemsa staining dependent optical microscopy based micronucleus test; assay type: toxicity, cell-based; conditions: tk6, 3 h
Salmonella typhimurium [6] = experiment: Genotoxicity in Salmonella typhimurium TA98 in absence of aroclor-1254-induced rat S9 fraction by Ames test; assay type: toxicity, organism-based; conditions: salmonella enterica subsp. enterica serovar typhimurium
Salmonella typhimurium [7] = experiment: Genotoxicity in Salmonella typhimurium TA98 in presence of aroclor-1254-induced rat S9 fraction by Ames test; assay type: toxicity, organism-based; conditions: salmonella enterica subsp. enterica serovar typhimurium
TK6 [8] = experiment: Genotoxicity in human-derived p53-competent TK6 cells expressing GADD45a-dependent green fluorescent protein assessed as decrease in cell viability after 48 hrs in presence of Sprague-Dawley rat S9 fraction by FACS analysis; assay type: toxicity, cell-based; conditions: s9, 48 h
Salmonella typhimurium [9] = experiment: Genotoxicity in Salmonella typhimurium TA100 in absence of aroclor-1254-induced rat S9 fraction by Ames test; assay type: toxicity, organism-based; conditions: salmonella enterica subsp. enterica serovar typhimurium
TK6 [10] = experiment: Genotoxicity in human TK6 cells incubated for 27 hrs in absence of aroclor-1254-induced rat S9 fraction by Giemsa staining dependent optical microscopy based micronucleus test; assay type: toxicity, cell-based; conditions: tk6, 27 h
[11] = Fraction unbound in human plasma at 5 uM incubated for 4 hrs at 37 degC by LC-MS/MS method; assay type: ADME, cell-free
Salmonella typhimurium [12] = experiment: Genotoxicity in Salmonella typhimurium TA100 in presence of aroclor-1254-induced rat S9 fraction by Ames test; assay type: toxicity, organism-based; conditions: salmonella enterica subsp. enterica serovar typhimurium
TK6 [13] = experiment: Genotoxicity in human TK6 cells incubated for 3 hrs in presence of aroclor-1254-induced rat S9 fraction followed by 27 hrs recovery period by Giemsa staining dependent optical microscopy based micronucleus test; assay type: toxicity, cell-based; conditions: s9, 3 h
[14] = Intrinsic clearance in human hepatocytes assessed per million cells at 1 uM incubated for 5 to 90 mins by LC-MS/MS method; assay type: ADME, cell-based, Hepatocyte; conditions: read-out: CLH

Structure (SMILES) | logD [1] | also measured
CCc1ccc(N(CC(C)C)S(=O)(=O)c2ccc(NCC3(CC)CCOCC3)c(S(C)(=N)=O)c2)cc1 (stereo not drawn) | 6.1 | –
CCc1ccc(N(CC(C)C)S(=O)(=O)c2ccc(NCC3(O)CCOCC3)c(S(C)(=N)=O)c2)cc1 (stereo not drawn) | 4.1 | –
CCc1ccc(N(CC(C)C)S(=O)(=O)c2ccc(N[C@H](C)C3CCOCC3)c(S(C)(=N)=O)c2)cc1 (stereo partly drawn) | 5.6 | –
CCc1ccc(N(CC(C)C)S(=O)(=O)c2ccc(OC3CCN(C(C)=O)CC3)c(S(C)(=N)=O)c2)cc1 (stereo not drawn) | 3.8 | –
CCc1ccc(N(CC(C)C)S(=O)(=O)c2ccc(CCN3CCOCC3)c(S(C)(=N)=O)c2)cc1 (stereo not drawn) | 4 | –
CCCCC(=O)O[C@]1(C(=O)CO)[C@@H](C)C[C@H]2[C@@H]3CCC4=CC(=O)C=C[C@]4(C)[C@@]3(F)[C@@H](O)C[C@@]21C [BETAMETHASONE VALERATE] | – | Activity (Mus musculus): 72%
CCc1ccc(N(CC(C)C)S(=O)(=O)c2ccc(NCC3(C)CCOCC3)c(S(C)(=N)=O)c2)cc1 (stereo not drawn) | 5.7 | –
CCc1ccc(N(CC(C)C)S(=O)(=O)c2ccc(N3CCN(C(C)=O)CC3)c(S(C)(=N)=O)c2)cc1 (stereo not drawn) | 3.8 | –
CCc1ccc(N(CC(C)C)S(=O)(=O)c2ccc(NCC3(F)CCOCC3)c(S(C)(=N)=O)c2)cc1 (stereo not drawn) | 5.2 | –
CCc1ccc(N(CC(C)C)S(=O)(=O)c2ccc(OC3CCN(S(C)(=O)=O)CC3)c(S(C)(=N)=O)c2)cc1 (stereo not drawn) | 4.6 | –
CCc1ccc(N(CC(C)C)S(=O)(=O)c2ccc(N[C@@H](C)C3CCOCC3)c(S(C)(=N)=O)c2)cc1 (stereo partly drawn) | 5.6 | –
CCc1ccc(N(CC(C)C)S(=O)(=O)c2ccc(OCC3CCOCC3)c([S@](C)(=N)=O)c2)cc1 | – | Activity [2]: Non-Toxic; IC50 [3]: > 10 µM; Activity (TK6 [4]): Non-Toxic; Activity (TK6 [5]): Non-Toxic; Activity (Salmonella typhimurium [6]): Non-Toxic; Activity (Salmonella typhimurium [7]): Non-Toxic; Activity (TK6 [8]): Non-Toxic; Activity (Salmonella typhimurium [9]): Non-Toxic; Activity (TK6 [10]): Non-Toxic; fraction unbound at 4 h, 5 µM [11]: 0.049; Activity (Salmonella typhimurium [12]): Non-Toxic; Activity (TK6 [13]): Non-Toxic; hepatocyte CLint at 1 µM [14]: 160 µL/min/1e6 cells

Second part, led by results:

logD [1] | Structure (SMILES) | also measured
4.6 | CCc1ccc(N(CC(C)C)S(=O)(=O)c2ccc(OCC3CCOCC3)c(S(C)(=N)=O)c2)cc1 (stereo not drawn) | –
5.3 | CCc1ccc(N(CC(C)C)S(=O)(=O)c2ccc(OCC3CCOCC3)c(S(N)(=O)=O)c2)cc1 | –
5.9 | CCc1ccc(N(CC(C)C)S(=O)(=O)c2ccc(OCC3CCOCC3)c(CO)c2)cc1 [GSK2981278] | –
7.2 | CCc1ccc(N(CC(C)C)S(=O)(=O)c2ccc(OCC3CCOCC3)cc2)cc1 | –
4.8 | CCc1ccc(N(CC(C)C)S(=O)(=O)c2ccc(OCC3CCOCC3)c(CC(N)=O)c2)cc1 | –
5.2 | CCc1ccc(N(CC(C)C)S(=O)(=O)c2ccc(OCC3CCOCC3)c(S(C)(=O)=NC)c2)cc1 (stereo not drawn) | –
3.1 | CCc1ccc(N(CC(C)C)S(=O)(=O)c2ccc(OCC3CCOCC3)c(CC(=O)O)c2)cc1 | –
5.8 | CCc1ccc(N(CC(C)C)S(=O)(=O)c2ccc(OCC3CCOCC3)c(S(C)(=O)=O)c2)cc1 | –
5 | CCc1ccc(N(CC(C)C)S(=O)(=O)c2ccc(OCC3CCOCC3)c(S(=N)(=O)CC)c2)cc1 (stereo not drawn) | –
5.3 | CCc1ccc(N(CC(C)C)S(=O)(=O)c2ccc(NCC3CCOCC3)c(S(C)(=N)=O)c2)cc1 (stereo not drawn) | –
5.4 | CCc1ccc(N(CC(C)C)S(=O)(=O)c2ccc(OCC3CCOCC3)c([S+](C)[O-])c2)cc1 (stereo not drawn) | –
5.2 | CCc1ccc(N(CC(C)C)S(=O)(=O)c2ccc(N(C)CC3CCOCC3)c(S(C)(=N)=O)c2)cc1 (stereo not drawn) | –
4.4 | CCc1ccc(N(CC(C)C)S(=O)(=O)c2ccc(OC3CCOCC3)c(S(C)(=N)=O)c2)cc1 (stereo not drawn) | –
6.5 | CCc1ccc(N(CC(C)C)S(=O)(=O)c2ccc(OCC3CCOCC3)c(CC#N)c2)cc1 | –

Reference: ChEMBL document CHEMBL4219169, “Sulfoximines as potent RORγ inverse agonists” (Bioorg Med Chem Lett, 2018)
